Data from the supplement of paper PMC10307832.

Columns and labels:
Assay in all cases: relative viability (nuclei count vs DMSO), 5 days (fraction); higher = more cells survive
HCC-44 = system: HCC-44
How it was run: (§1)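 Cells from lung cancer lines were seeded into 1536-well plates and, one day later, dosed by pin tool. Treatments were either a single drug or a fixed dose of an anchor drug with five library-drug doses (not always all listed) in √10 steps. After 5 days, nuclei were stained in a one-step fixation (final 0.05% Triton X-100, 1% formaldehyde, 1 ug/ml Hoechst) and counted on 4× images, and relative viability is the treated-to-vehicle nuclei ratio, as the median of duplicate plates.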

NCI-H647 = system: NCI-H647
How it was run: as §1

NCI-H1437 = system: NCI-H1437
How it was run: as §1

LCLC-97TM1 = system: LCLC-97TM1
How it was run: as §1

PC-3 [JPC-3] = system: PC-3 [JPC-3]
How it was run: as §1

EKVX = system: EKVX
How it was run: as §1

NCI-H1666 = system: NCI-H1666
How it was run: as §1

H3255 = system: H3255
How it was run: as §1

NCI-H650 = system: NCI-H650
How it was run: as §1

LOU-NH91 = system: LOU-NH91
How it was run: as §1

SW 1573 = system: SW 1573
How it was run: as §1

201T = system: 201T
How it was run: as §1

NCI-H1975 = system: NCI-H1975
How it was run: as §1

NCI-H2342 = system: NCI-H2342
How it was run: as §1

HCC-827 = system: HCC-827
How it was run: as §1

LU99A = system: LU99A
How it was run: as §1

NCI-H2085 = system: NCI-H2085
How it was run: as §1

COR-L 105 = system: COR-L 105
How it was run: as §1

EPLC-272H = system: EPLC-272H
How it was run: as §1

NCI-H2170 = system: NCI-H2170
How it was run: as §1

NCI-H2087 = system: NCI-H2087
How it was run: as §1

BEN = system: BEN
How it was run: as §1

## O=c1cc(N2CCOCC2)oc2c(-c3cccc4c3sc3ccccc34)cccc12 + Cc1cc(Nc2cc(N3CCN(C)CC3)nc(Sc3ccc(NC(=O)C4CC4)cc3)n2)n[nH]1 [Tozasertib] (partner 0.1 µM)
HCC-44; first compound 0.01 µM
  relative viability: 0.846
HCC-44; first compound 0.03162 µM
  relative viability: 1.05
HCC-44; first compound 0.1 µM
  relative viability: 1.12
HCC-44; first compound 0.3162 µM
  relative viability: 0.876
HCC-44; first compound 1 µM
  relative viability: 0.91
NCI-H647; first compound 0.01 µM
  relative viability: 0.369
NCI-H647; first compound 0.03162 µM
  relative viability: 0.32
NCI-H647; first compound 0.1 µM
  relative viability: 0.262
NCI-H647; first compound 0.3162 µM
  relative viability: 0.295
NCI-H647; first compound 1 µM
  relative viability: 0.226
NCI-H1437; first compound 0.01 µM
  relative viability: 0.351
NCI-H1437; first compound 0.03162 µM
  relative viability: 0.406
NCI-H1437; first compound 0.1 µM
  relative viability: 0.428
NCI-H1437; first compound 0.3162 µM
  relative viability: 0.431
NCI-H1437; first compound 1 µM
  relative viability: 0.373
LCLC-97TM1; first compound 0.01 µM
  relative viability: 0.262
LCLC-97TM1; first compound 0.03162 µM
  relative viability: 0.246
LCLC-97TM1; first compound 0.1 µM
  relative viability: 0.28
LCLC-97TM1; first compound 0.3162 µM
  relative viability: 0.214
LCLC-97TM1; first compound 1 µM
  relative viability: 0.219
PC-3 [JPC-3]; first compound 0.01 µM
  relative viability: 0.855
PC-3 [JPC-3]; first compound 0.03162 µM
  relative viability: 0.884
PC-3 [JPC-3]; first compound 0.1 µM
  relative viability: 0.879
PC-3 [JPC-3]; first compound 0.3162 µM
  relative viability: 0.842
PC-3 [JPC-3]; first compound 1 µM
  relative viability: 0.852
EKVX; first compound 0.01 µM
  relative viability: 0.448
EKVX; first compound 0.03162 µM
  relative viability: 0.332
EKVX; first compound 0.1 µM
  relative viability: 0.441
EKVX; first compound 0.3162 µM
  relative viability: 0.343
EKVX; first compound 1 µM
  relative viability: 0.36
NCI-H1666; first compound 0.01 µM
  relative viability: 0.512
NCI-H1666; first compound 0.03162 µM
  relative viability: 0.56
NCI-H1666; first compound 0.1 µM
  relative viability: 0.579
NCI-H1666; first compound 0.3162 µM
  relative viability: 0.596
NCI-H1666; first compound 1 µM
  relative viability: 0.567
H3255; first compound 0.01 µM
  relative viability: 0.789
H3255; first compound 0.03162 µM
  relative viability: 0.484
H3255; first compound 0.1 µM
  relative viability: 0.709
H3255; first compound 0.3162 µM
  relative viability: 0.593
H3255; first compound 1 µM
  relative viability: 0.606
NCI-H650; first compound 0.03162 µM
  relative viability: 0.763
NCI-H650; first compound 0.1 µM
  relative viability: 0.701
NCI-H650; first compound 0.3162 µM
  relative viability: 0.803
NCI-H650; first compound 1 µM
  relative viability: 0.704
LOU-NH91; first compound 0.01 µM
  relative viability: 0.642
LOU-NH91; first compound 0.03162 µM
  relative viability: 0.65
LOU-NH91; first compound 0.1 µM
  relative viability: 0.655
LOU-NH91; first compound 0.3162 µM
  relative viability: 0.697
LOU-NH91; first compound 1 µM
  relative viability: 0.65
SW 1573; first compound 0.01 µM
  relative viability: 0.198
SW 1573; first compound 0.03162 µM
  relative viability: 0.159
SW 1573; first compound 0.1 µM
  relative viability: 0.164
SW 1573; first compound 0.3162 µM
  relative viability: 0.157
SW 1573; first compound 1 µM
  relative viability: 0.166
201T; first compound 0.01 µM
  relative viability: 0.93
201T; first compound 0.03162 µM
  relative viability: 0.916
201T; first compound 0.1 µM
  relative viability: 0.983
201T; first compound 0.3162 µM
  relative viability: 0.883
201T; first compound 1 µM
  relative viability: 0.881
NCI-H1975; first compound 0.01 µM
  relative viability: 0.692
NCI-H1975; first compound 0.03162 µM
  relative viability: 0.657
NCI-H1975; first compound 0.1 µM
  relative viability: 0.958
NCI-H1975; first compound 0.3162 µM
  relative viability: 0.746
NCI-H1975; first compound 1 µM
  relative viability: 0.76
NCI-H2342; first compound 0.01 µM
  relative viability: 0.643
NCI-H2342; first compound 0.03162 µM
  relative viability: 0.504
NCI-H2342; first compound 0.1 µM
  relative viability: 0.535
NCI-H2342; first compound 0.3162 µM
  relative viability: 0.555
NCI-H2342; first compound 1 µM
  relative viability: 0.469
HCC-827; first compound 0.01 µM
  relative viability: 0.386
HCC-827; first compound 0.03162 µM
  relative viability: 0.435
HCC-827; first compound 0.1 µM
  relative viability: 0.431
HCC-827; first compound 0.3162 µM
  relative viability: 0.426
HCC-827; first compound 1 µM
  relative viability: 0.389
LU99A; first compound 0.01 µM
  relative viability: 0.262
LU99A; first compound 0.03162 µM
  relative viability: 0.279
LU99A; first compound 0.1 µM
  relative viability: 0.273
LU99A; first compound 0.3162 µM
  relative viability: 0.303
LU99A; first compound 1 µM
  relative viability: 0.267
NCI-H2085; first compound 0.01 µM
  relative viability: 0.841
NCI-H2085; first compound 0.03162 µM
  relative viability: 0.813
NCI-H2085; first compound 0.1 µM
  relative viability: 0.741
NCI-H2085; first compound 0.3162 µM
  relative viability: 0.73
NCI-H2085; first compound 1 µM
  relative viability: 0.77
COR-L 105; first compound 0.01 µM
  relative viability: 0.346
COR-L 105; first compound 0.03162 µM
  relative viability: 0.286
COR-L 105; first compound 0.1 µM
  relative viability: 0.373
COR-L 105; first compound 0.3162 µM
  relative viability: 0.303
COR-L 105; first compound 1 µM
  relative viability: 0.299
EPLC-272H; first compound 0.01 µM
  relative viability: 0.288
EPLC-272H; first compound 0.03162 µM
  relative viability: 0.327
EPLC-272H; first compound 0.3162 µM
  relative viability: 0.206
EPLC-272H; first compound 1 µM
  relative viability: 0.253
NCI-H2170; first compound 0.01 µM
  relative viability: 0.741
NCI-H2170; first compound 0.03162 µM
  relative viability: 0.673
NCI-H2170; first compound 0.1 µM
  relative viability: 0.758
NCI-H2170; first compound 0.3162 µM
  relative viability: 0.801
NCI-H2170; first compound 1 µM
  relative viability: 0.707
NCI-H2087; first compound 0.01 µM
  relative viability: 0.289
NCI-H2087; first compound 0.03162 µM
  relative viability: 0.247
NCI-H2087; first compound 0.1 µM
  relative viability: 0.297
NCI-H2087; first compound 0.3162 µM
  relative viability: 0.226
NCI-H2087; first compound 1 µM
  relative viability: 0.25
BEN; first compound 0.01 µM
  relative viability: 0.487
BEN; first compound 0.03162 µM
  relative viability: 0.469
BEN; first compound 0.1 µM
  relative viability: 0.482
BEN; first compound 0.3162 µM
  relative viability: 0.463
BEN; first compound 1 µM
  relative viability: 0.531
